Data as given in US20090270447A1, “2-Aryl-and 2-Heteroarylthiazolyl Compounds, Methods for Their Preparation and Use Thereof” (Wyeth, priority 2008, published 2009).

How the values were obtained:
[1] = test system: securin "knock out" cells D8 (Securin−/−); assay: Growth inhibition of securin knock out cells D8 (SRB, 5 days); assay type: cell-based; conditions: for IC50: 120 h, securin knock out D8 cells, 5 days, SRB; for Selectivity Ratio D8: IC50 HCT116 / IC50 securin KO D8
Procedure: (§1) IC50 analysis was performed for selected fused heterobicyclic 2-aryl or 2-heteroarylthiazolyl compounds that were tested on HCT116 cells and Securin “knock out” cell lines.
(§2) Cell Culture—HCT116 and securin “knock out” cells. HCT116 and securin “knock out” cells (D8 and F3) were grown in RPMI+5% fetal bovine serum and gentamycin. They were maintained in a humidified 37° C. incubator with 5% CO2. Since the securin “knock out” cells have active chromosomal instability, cells were used at a low passage number of 2-13 passages. At or before passage 13 a new vial of cells was thawed and used for the screen. Cell seeding—HCT116 cells and securin “knock out” cells were trypsinized and suspenended in RPMI+5% FBS at a density of 27,000 cells/mL. HCT116 and securin “knock out” cells were seeded separately in wells of a 96-well plate (Falcon Cat # 35-3872) at a cell density of 4000 cells per well. Cells were seeded in 150 μL of RPMI media containing 5% FBS and gentamycin. Cell seeding was performed under aseptic conditions. Cells were allowed to attach and grow overnight in a humidified 37° C. incubator.
(§3) Compound Dilution and Dispensation. A series of stock solutions, 10 mg/ml of 2-aryl- or 2-heteroarylthiazolyl compounds to be tested, were brought to room temperature. The compounds were diluted 1:50 in RPMI+5% FBS (Highest concentration 200 μg/mL). The compounds were then serially diluted 1:3 across a deep-well titration plate resulting in final concentrations in the plate of 200, 66.7, 22.2, 7.4, 2.4, 0.8 0.27, 0.091, 0.03, 0.01, and 0.0034 μg/mL with one well left without a compound. 50 μL of this dilution series was added to the 150 μL of cells to result in a final concentration of compound in with the cells of 50, 16.6, 5.5, 1.8, 0.6, 0.2, 0.068, 0.023, 0.0076, 0.0025, and 0.00084 μg/mL. The dilution and addition of compounds to the plates is performed using a Multimek 96 Robot (Beckman Coulter).
(§4) Incubation and analysis. After dosing, the cells in the 96 well plates were returned to the humidified 37° C. incubator. The compounds remained on the cells for 5 days. After 5 days, the cells were fixed to the plates with the addition of 50 μL of 50% (vol/vol) Trichloro Acetic Acid ([…]). The cells were fixed at 4° C. for 1 hour. The plates were washed 5 times in distilled water and allowed to dry. The cells were stained with 0.4% sulforhodamine B (Sigma) in 1% acetic acid. The cells were stained for 15 minutes at room temperature. The plates were then washed 3 times in 1% acetic acid. The plates were dried and the dye was solubilized in 10 mM Tris at pH 8.0. The plates were read on the Absorbence 560 setting on a Victor^2 V Model 1420 Multilabel HTS counter (Perkin Elmer).
(§5) Analysis of Results—IC50 data. Absorbence data was read off of the Victor and was converted to a percentage of the control (untreated) values. IC50 values were graphed and the point at which a 50% inhibition of the control level was determined. […] If the model was not able to determine an IC50, the IC50 was assigned to the lowest concentration that gives a 50% or greater decrease in absorbence compared to control levels. If the calculated IC50 value for a cell line exceeds the top concentration for the assay (typically 50 μg/mL), the assay was scored as >50.
(§6) Selectivity Ratio. The Selectivity Ratio is the ratio of IC50s between the parent cell line and the knock out cell line and is always a positive number and is typically an integer.

[2] = test system: xenografts of a human breast carcinoma cell line (MDA-MB-361); assay: In-vivo activity in tumor xenografts; conditions: days 1 through 20
Procedure: Selected fused heterobicyclic 2-aryl- or 2-heteroarylthiazolyl compounds of formula I were tested for their activity in a securin parental cell line (HCT116 FB) and a securin knockout (KO) cell line. […] The in-vivo activity of selected fused heterobicyclic 2-arylarylthiazolyl compounds of formula I was studied in cells growing as xenografts in athymic (nude) mice. The effect of Examples 5-7 and 10 was studied in xenografts of a human breast carcinoma cell line (MDA-MB-361).
In-vivo Activity in Tumor Xenografts. The effectiveness of Examples 5-7 versus Vincristine at controlling tumor growth was studied and the results are summarized in Table 2 and FIG. 1. The 2-arylthiazolyl compounds were formulated 0.5% Methocel™ (methylcellulose) and 0.4% Tween 80™ (polysorbate-80 and oleic acid) and administered daily orally (PO), by gavage or intraperiotenially (IP) by syringe. Tumor mass [(length×width^2)/2] was determined every 7 days. Inhibition of tumor growth was calculated relative to conventional (vehicle treated) controls.

[3] = test system: HCT116 cells (Securin+/+, securin parental cell line HCT116 FB); assay: Growth inhibition of securin parental cells (SRB, 5 days); assay type: cell-based; conditions: Homo sapiens, HCT-116, 120 h
Procedure: as §1, §2, §3, §4, §5

[4] = test system: securin "knock out" cells F3 (Securin−/−); assay: Growth inhibition of securin knock out cells F3 (SRB, 5 days); assay type: cell-based; conditions: for IC50: 120 h, securin knock out F3 cells, 5 days, SRB; for Selectivity Ratio F3: IC50 HCT116 / IC50 securin KO F3
Procedure: as §1, §2, §3, §4, §5, §6

SMILES | IC50 [1] [µM] | Selectivity Ratio D8 [1] | % T/C Day 7 ([2]; 10 mg/kg/dose PO) [%] | Relative Tumor Growth Day 7 ([2]; 10 mg/kg/dose PO) | % T/C Day 14 ([2]; 10 mg/kg/dose PO) [%] | Relative Tumor Growth Day 14 ([2]; 10 mg/kg/dose PO) | % T/C Day 21 ([2]; 10 mg/kg/dose PO) [%] | Relative Tumor Growth Day 21 ([2]; 10 mg/kg/dose PO) | IC50 [3] [µM] | IC50 [4] [µM] | Selectivity Ratio F3 [4] | S/T = # of Survivors/# of Treated on Day +21 post tumor staging ([2]; 5 mg/kg/dose PO) | % T/C Day 7 ([2]; 5 mg/kg/dose PO) [%] | Relative Tumor Growth Day 7 ([2]; 5 mg/kg/dose PO) | % T/C Day 14 ([2]; 5 mg/kg/dose PO) [%] | Relative Tumor Growth Day 14 ([2]; 5 mg/kg/dose PO) | % T/C Day 21 ([2]; 5 mg/kg/dose PO) [%] | Relative Tumor Growth Day 21 ([2]; 5 mg/kg/dose PO)
OC1CNCc2nc(-c3ccc(N4CCCC4)cc3)sc21 [Example 5, (7R,7S)-2-(4-pyrrolidin-1-yl-phenyl)-4,5,6,7-tetrahydro[1,3]thiazolo[4,5-c]pyridin-7-ol] | 0.68 | 34 | 96 | 1.59 | 78 | 3.92 | 86 | 7.86 | 22.8 | 0.93 | 25 |  |  |  |  |  |  | 
O[C@@H]1CNCc2nc(-c3ccc(N4CCCC4)cc3)sc21 [Example 6, (7R)-2-(4-pyrrolidin-1-yl-phenyl)-4,5,6,7-tetrahydro[1,3]thiazolo[4,5-c]pyridin-7-ol] | 0.45 | 32 | 106 | 1.76 | 81 | 4.06 | 80 | 7.32 | 14.5 | 0.429 | 34 | 9/10 | 88 | 1.46 | 74 | 3.72 | 71 | 6.53
O[C@H]1CNCc2nc(-c3ccc(N4CCCC4)cc3)sc21 [Example 7, (7S)-2-(4-pyrrolidin-1-yl-phenyl)-4,5,6,7-tetrahydro[1,3]thiazolo[4,5-c]pyridin-7-ol] | 21.6 | 2 | 93 | 1.54 | 113 | 5.64 | 122 | 11.17 | 36.4 | 9.67 | 4 | 10/10 | 95 | 1.57 | 86 | 4.30 | 81 | 7.45
